Data reported in patent US8188135B2, “Compounds as cannabinoid receptor ligands” (priority 2008, dated 2012).
Where two headings read alike, the source gives them in different places.

What was measured:
rat CB2 = target: T1, rat CB2 (Rattus norvegicus, UniProt Q9QZN9); assay: rat CB2 radioligand binding assay ([3H]CP 55,940 competition); parameters: expressed in transfected cells; host or cells: HEK293; conditions: HEK293 membranes, 0.5 nM [3H]CP 55,940
T1 sequence (Q9QZN9 1-360): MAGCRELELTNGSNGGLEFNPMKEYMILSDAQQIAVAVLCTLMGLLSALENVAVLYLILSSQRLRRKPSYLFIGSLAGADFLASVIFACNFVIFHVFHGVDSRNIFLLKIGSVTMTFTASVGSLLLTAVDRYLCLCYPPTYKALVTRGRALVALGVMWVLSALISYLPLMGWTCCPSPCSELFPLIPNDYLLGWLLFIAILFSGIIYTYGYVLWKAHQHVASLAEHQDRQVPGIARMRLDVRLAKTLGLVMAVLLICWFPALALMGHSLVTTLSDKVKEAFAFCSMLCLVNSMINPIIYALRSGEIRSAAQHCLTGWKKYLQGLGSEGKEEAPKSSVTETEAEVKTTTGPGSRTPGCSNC
Description: (§1) The CB1 and CB2 radioligand binding assays described herein are utilized to ascertain the affinity of compounds of the present application for binding to CB2 relative to CB1 receptors.
HEK293 cells stably expressing rat CB2 receptors were grown until a confluent monolayer was formed. Briefly, the cells were harvested and homogenized in TE buffer (50 mM Tris-HCl, 1 mM MgCl2, and 1 mM EDTA) using a polytron for 2×10 second bursts in the presence of protease inhibitors, followed by centrifugation at 45,000×g for 20 minutes. The final membrane pellet was re-homogenized in storage buffer (50 mM Tris-HCl, 1 mM MgCl2, and 1 mM EDTA and 10% sucrose) and frozen at −78° C. until used. Saturation binding reactions were initiated by the addition of membrane preparation (protein concentration of 20 μg/well for rat CB2) into wells of a deep well plate containing [^3H]CP 55,940 (120 Ci/mmol, a nonselective CB agonist commercially available from Tocris) in assay buffer (50 mM Tris, 2.5 mM EDTA, 5 mM MgCl2, and 0.5 mg/mL fatty acid free BSA, pH 7.4). After 45 min incubation at 30° C., binding reaction was terminated by the addition of […] of cold assay buffer followed by rapid vacuum filtration through a UniFilter-96 GF/C filter plates (pre-soaked in 1 mg/mL BSA for 2 hours). The bound activity was counted in a TopCount using Microscint-20. Saturation experiments were conducted with twelve concentrations of [^3H]CP 55,940 ranging from 0.01 to 8 nM. Competition experiments were conducted with 0.5 nM [^3H]CP 55,940 and five concentrations of displacing ligands selected from the range of 0.01 nM to 10 μM. The addition of 10 μM unlabeled CP 55,940 (Tocris, Ellisville, Mo.) was used to assess nonspecific binding.

human CB2 receptors = target: T2, human CB2 receptors (Homo sapiens, UniProt P34972); assay: human CB2 radioligand binding assay ([3H]CP 55,940 competition); conditions: HEK293 membranes, 0.5 nM [3H]CP 55,940
T2 construct: expressed in transfected cells; host or cells: HEK293
T2 sequence (P34972 whole entry): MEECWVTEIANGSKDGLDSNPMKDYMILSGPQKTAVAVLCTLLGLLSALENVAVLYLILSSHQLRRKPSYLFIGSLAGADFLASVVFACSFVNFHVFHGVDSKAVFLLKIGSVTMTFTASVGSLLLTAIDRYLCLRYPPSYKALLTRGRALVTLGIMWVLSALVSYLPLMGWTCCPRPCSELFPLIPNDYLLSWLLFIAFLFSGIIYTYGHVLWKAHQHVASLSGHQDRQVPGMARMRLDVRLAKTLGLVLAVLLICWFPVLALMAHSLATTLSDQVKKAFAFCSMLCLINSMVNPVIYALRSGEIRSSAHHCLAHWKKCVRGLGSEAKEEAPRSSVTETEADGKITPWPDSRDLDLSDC
Description: as §1
HEK293 cells stably expressing human CB2 receptors were grown until a confluent monolayer was formed. Briefly, the cells were harvested and homogenized in TE buffer (50 mM Tris-HCl, 1 mM MgCl2, and 1 mM EDTA) using a polytron for 2×10 second bursts in the presence of protease inhibitors, followed by centrifugation at 45,000×g for 20 minutes. The final membrane pellet was re-homogenized in storage buffer (50 mM Tris-HCl, 1 mM MgCl2, and 1 mM EDTA and 10% sucrose) and frozen at −78° C. until used. Saturation binding reactions were initiated by the addition of membrane preparation (protein concentration of 5 μg/well for human CB2) into wells of a deep well plate containing [^3H]CP 55,940 (120 Ci/mmol, a nonselective CB agonist commercially available from Tocris) in assay buffer (50 mM Tris, 2.5 mM EDTA, 5 mM MgCl2, and 0.5 mg/mL fatty acid free BSA, pH 7.4). After 90 min incubation at 30° C., binding reaction was terminated by the addition of 300 μL/well of cold assay buffer followed by rapid vacuum filtration through a UniFilter-96 GF/C filter plates (pre-soaked in 1 mg/mL BSA for 2 hours). The bound activity was counted in a TopCount using Microscint-20. Saturation experiments were conducted with twelve concentrations of [^3H]CP 55,940 ranging from 0.01 to 8 nM. Competition experiments were conducted with 0.5 nM [^3H]CP 55,940 and five concentrations (0.01 nM to 10 μM) of displacing ligands. The addition of 10 μM unlabeled CP 55,940 (Tocris, Ellisville, Mo.) was used to assess nonspecific binding.

CCCCn1/c(=N/C(=O)c2cc(C#N)ccc2OCC(C)(C)O)cc(C(C)(C)C)n1C [Example 108, N-[(3E)-2-butyl-5-tert-butyl-1-methyl-1,2-dihydro-3H-pyrazol-3-ylidene]-5-cyano-2-(2-hydroxy-2-methylpropoxy)benzamide]
Ki (rat CB2; read-out: rat CB2 (Ki)): 288 nM
Ki (human CB2 receptors; read-out: human CB2 (Ki)): > 1000 nM

CC[C@H](O)COc1ccc(C(F)(F)F)cc1C(=O)/N=c1\cc(C(C)(C)C)n(C)n1C[C@H]1CCCO1 [Example 109, N-{(3E)-5-tert-butyl-1-methyl-2-[(2R)-tetrahydrofuran-2-ylmethyl]-1,2-dihydro-3H-pyrazol-3-ylidene}-2-{[(2S)-2-hydroxybutyl]oxy}-5-(trifluoromethyl)benzamide]
Ki (rat CB2; rat CB2 (Ki, nM)): 1.2 nM
Ki (human CB2 receptors; human CB2 (Ki, nM)): 1.3 nM

CCC(C)(O)COc1ccc(C(F)(F)F)cc1C(=O)/N=c1\cc(C(C)(C)C)n(C)n1C[C@H]1CCCO1 (stereo partly drawn) [Example 110, N-{(3E)-5-tert-butyl-1-methyl-2-[(2R)-tetrahydrofuran-2-ylmethyl]-1,2-dihydro-3H-pyrazol-3-ylidene}-2-(2-hydroxy-2-methylbutoxy)-5-(trifluoromethyl)benzamide]
Ki (rat CB2; rat CB2 (Ki, nM)): 1.6 nM
Ki (human CB2 receptors; human CB2 (Ki, nM)): 3.5 nM

CC(C)[C@H](O)COc1ccc(C(F)(F)F)cc1C(=O)/N=c1\cc(C(C)(C)C)n(C)n1C[C@H]1CCCO1 [Example 111, N-{(3E)-5-tert-butyl-1-methyl-2-[(2R)-tetrahydrofuran-2-ylmethyl]-1,2-dihydro-3H-pyrazol-3-ylidene}-2-{[(2S)-2-hydroxy-3-methylbutyl]oxy}-5-(trifluoromethyl)benzamide]
Ki (rat CB2; rat CB2 (Ki, nM)): 1 nM
Ki (human CB2 receptors; human CB2 (Ki, nM)): 1.8 nM

Cn1c(C(C)(C)C)c/c(=N\C(=O)c2cc(C(F)(F)F)ccc2OC[C@@H](O)C(C)(C)C)n1C[C@H]1CCCO1 [Example 112, N-{(3E)-5-tert-butyl-1-methyl-2-[(2R)-tetrahydrofuran-2-ylmethyl]-1,2-dihydro-3H-pyrazol-3-ylidene}-2-{[(2S)-2-hydroxy-3,3-dimethylbutyl]oxy}-5-(trifluoromethyl)benzamide]
Ki (rat CB2; rat CB2 (Ki, nM)): 1.9 nM
Ki (human CB2 receptors; human CB2 (Ki, nM)): 6.7 nM

CC(C)c1c/c(=N\C(=O)c2cc(C(F)(F)F)ccc2OCC(C)(C)O)n(CC2CCCC2)n1C [Example 114, N-[(3E)-2-(cyclopentylmethyl)-5-isopropyl-1-methyl-1,2-dihydro-3H-pyrazol-3-ylidene]-2-(2-hydroxy-2-methylpropoxy)-5-(trifluoromethyl)benzamide]
Ki (rat CB2; rat CB2 (Ki, nM)): 35 nM
Ki (human CB2 receptors; read-out: human CB2 (Ki)): 129 nM

Cn1c(C(C)(C)C)c/c(=N\C(=O)c2cc(C(F)(F)F)ccc2OCC(C)(C)CO)n1C[C@H]1CCCO1 [Example 116, N-{(3E)-5-tert-butyl-1-methyl-2-[(2R)-tetrahydrofuran-2-ylmethyl]-1,2-dihydro-3H-pyrazol-3-ylidene}-2-(3-hydroxy-2,2-dimethylpropoxy)-5-(trifluoromethyl)benzamide]
Ki (rat CB2; read-out: rat CB2 (Ki)): 199 nM
Ki (human CB2 receptors; read-out: human CB2 (Ki)): > 1000 nM

CCC(O)(CC)COc1ccc(C(F)(F)F)cc1C(=O)/N=c1\cc(C(C)(C)C)n(C)n1C[C@H]1CCCO1 [Example 117, N-{(3E)-5-tert-butyl-1-methyl-2-[(2R)-tetrahydrofuran-2-ylmethyl]-1,2-dihydro-3H-pyrazol-3-ylidene}-2-(2-ethyl-2-hydroxybutoxy)-5-(trifluoromethyl)benzamide]
Ki (rat CB2; rat CB2 (Ki, nM)): 69 nM
Ki (human CB2 receptors; human CB2 (Ki, nM)): 83 nM

COCCCn1/c(=N/C(=O)c2cc(C(F)(F)F)ccc2OCC(C)(C)O)cc(C(C)(C)C)n1C [Example 122, N-[(3E)-5-tert-butyl-2-(3-methoxypropyl)-1-methyl-1,2-dihydro-3H-pyrazol-3-ylidene]-2-(2-hydroxy-2-methylpropoxy)-5-(trifluoromethyl)benzamide]
Ki (rat CB2; rat CB2 (Ki, nM)): 27 nM
Ki (human CB2 receptors; human CB2 (Ki, nM)): 91 nM

CCCn1/c(=N/C(=O)c2cc(C(F)(F)F)ccc2OCC(C)(C)O)cc(C(C)(C)C)n1C [Example 125, N-[(3E)-5-tert-butyl-1-methyl-2-propyl-1,2-dihydro-3H-pyrazol-3-ylidene]-2-(2-hydroxy-2-methylpropoxy)-5-(trifluoromethyl)benzamide]
Ki (rat CB2; rat CB2 (Ki, nM)): 86 nM
Ki (human CB2 receptors; read-out: human CB2 (Ki)): 211 nM

Cn1c(C(C)(C)C)c/c(=N\C(=O)c2cc(Br)ccc2OCC(C)(C)O)n1C[C@H]1CCCO1 [Example 128, 5-bromo-N-{(3E)-5-tert-butyl-1-methyl-2-[(2R)-tetrahydrofuran-2-ylmethyl]-1,2-dihydro-3H-pyrazol-3-ylidene}-2-(2-hydroxy-2-methylpropoxy)benzamide]
Ki (rat CB2; rat CB2 (Ki, nM)): 4.9 nM
Ki (human CB2 receptors; human CB2 (Ki, nM)): 15 nM

CC(=O)NCCOc1ccc(C(F)(F)F)cc1C(=O)/N=c1\cc(C(C)(C)C)n(C)n1CC1CCC1 [Example 130, 2-[2-(acetylamino)ethoxy]-N-[(3E)-5-tert-butyl-2-(cyclobutylmethyl)-1-methyl-1,2-dihydro-3H-pyrazol-3-ylidene]-5-(trifluoromethyl)benzamide]
Ki (rat CB2; rat CB2 (Ki, nM)): 2.9 nM
Ki (human CB2 receptors; human CB2 (Ki, nM)): 5 nM

COC(=O)c1ccc(OCC(C)(C)O)c(C(=O)/N=c2\cc(C(C)(C)C)n(C)n2C[C@H]2CCCO2)c1 [Example 132, methyl 3-[({(3E)-tert-butyl-1-methyl-2-[(2R)-tetrahydrofuran-2-ylmethyl]-1,2-dihydro-3H-pyrazol-3-ylidene}amino)carbonyl]-4-(2-hydroxy-2-methylpropoxy)benzoate]
Ki (rat CB2; read-out: rat CB2 (Ki)): 51 nM
Ki (human CB2 receptors; read-out: human CB2 (Ki)): 127 nM

CSCCCOc1ccc(C(F)(F)F)cc1C(=O)/N=c1\cc(C(C)(C)C)n(C)n1CC1CCC1 [Example 133, N-[(3E)-5-tert-butyl-2-(cyclobutylmethyl)-1-methyl-1,2-dihydro-3H-pyrazol-3-ylidene]-2-[3-(methylthio)propoxy]-5-(trifluoromethyl)benzamide]
Ki (rat CB2; rat CB2 (Ki, nM)): 15 nM
Ki (human CB2 receptors; human CB2 (Ki, nM)): 13 nM

Cn1c(C(C)(C)C)c/c(=N\C(=O)c2cc(C(F)(F)F)ccc2OCCCS(C)(=O)=O)n1CC1CCC1 [Example 134, N-[(3E)-5-tert-butyl-2-(cyclobutylmethyl)-1-methyl-1,2-dihydro-3H-pyrazol-3-ylidene]-2-[3-(methylsulfonyl)propoxy]-5-(trifluoromethyl)benzamide]
Ki (rat CB2; rat CB2 (Ki, nM)): 40 nM
Ki (human CB2 receptors; human CB2 (Ki, nM)): 22 nM

Cn1c(C(C)(C)C)c/c(=N\C(=O)c2cc(C(F)(F)F)ccc2OCC(C)(C)O)n1CCCC(F)(F)F [Example 135, N-[(3E)-5-tert-butyl-1-methyl-2-(4,4,4-trifluorobutyl)-1,2-dihydro-3H-pyrazol-3-ylidene]-2-(2-hydroxy-2-methylpropoxy)-5-(trifluoromethyl)benzamide]
Ki (rat CB2; rat CB2 (Ki, nM)): 5.5 nM
Ki (human CB2 receptors; human CB2 (Ki, nM)): 23 nM

CCCCn1/c(=N/C(=O)c2cc(C(F)(F)F)ccc2SCC(C)O)cc(C(C)(C)C)n1C (stereo not drawn) [Example 136, N-[(3E)-2-butyl-5-tert-butyl-1-methyl-1,2-dihydro-3H-pyrazol-3-ylidene]-2-[(2-hydroxypropyl)thio]-5-(trifluoromethyl)benzamide]
Ki (rat CB2; rat CB2 (Ki, nM)): 16 nM
Ki (human CB2 receptors; human CB2 (Ki, nM)): 44 nM

CCCCn1/c(=N/C(=O)c2cc(C(F)(F)F)ccc2SCC(C)(C)O)cc(C(C)(C)C)n1C [Example 137]
Ki (rat CB2; rat CB2 (Ki, nM)): 26 nM
Ki (human CB2 receptors; human CB2 (Ki, nM)): 55 nM
